Source: US20180201592A1, “2-AMINO-1,3,4-THIADIAZINE AND 2-AMINO-1,3,4-OXADIAZINE BASED ANTIFUNGAL AGENTS” (F2G Limited, priority 2015, published 2018)

Assays:
Settings in all cases: banded MIC grade
C. parapsilosis = assay: Minimum inhibitory concentration, RPMI medium; assay type: cell-based
Outline: (§1)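 Growth was measured by OD at 485 nm after 24-48 hrs at 35° C in RPMI 1640 medium. Compound was serially diluted twofold in water, starting from a 5 mg/mL DMSO stock solution.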

C. albicans = assay: Minimum inhibitory concentration, RPMI medium; assay type: cell-based
Outline: as §1

C. tropicalis = assay: Minimum inhibitory concentration, RPMI medium; assay type: cell-based
Outline: as §1

Aspergillus flavus = assay: Minimum inhibitory concentration, YAG medium; assay type: cell-based
Outline: (§2)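 MIC in mg/L, from OD485 growth read-out after 24 hrs at 35° C in YAG medium with Aspergillus spores. Doubling dilutions in water made from a 5 mg/mL DMSO stock.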

Aspergillus niger = assay: Minimum inhibitory concentration, YAG medium; assay type: cell-based
Outline: as §2

Aspergillus terreus = assay: Minimum inhibitory concentration, YAG medium; assay type: cell-based
Outline: as §2

A. fumigatus 210 = assay: Minimum inhibitory concentration, YAG medium; assay type: cell-based, Aspergillus fumigatus
Outline: (§3)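 MICs (mg/L) reflect >70% inhibition of OD485 growth versus untreated control after 24 hrs at 35° C in YAG medium, spore inoculum 1-2×10^4 cfu/mL, drug range 50-0.05 mg/L.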

A. terreus 49 = assay: Minimum inhibitory concentration, YAG medium; assay type: cell-based, Aspergillus terreus
Outline: as §2

Aspergillus fumigatus = assay: Minimum inhibitory concentration, YAG medium; assay type: cell-based
Outline: as §3

Row | SMILES | MIC grade, C. PARAPSILOSIS, RPMI media (C. parapsilosis) | MIC grade, C. ALBICANS, RPMI media (C. albicans) | MIC grade, C. TROPICALIS, RPMI media (C. tropicalis) | MIC grade, A. FLAVUS, YAG media (Aspergillus flavus) | MIC grade, A. NIGER, YAG media (Aspergillus niger) | MIC grade, A. TERREUS, YAG media (Aspergillus terreus) | MIC grade, A. FUMIGATUS 210, YAG media (A. fumigatus 210) | MIC grade, A. TERREUS 49, YAG media (A. terreus 49) | MIC grade, A. FUMIGATUS, YAG media (Aspergillus fumigatus)
1 | N#Cc1ccc(COCCC2=NN=C(N)SC2)cc1 | 2 (2: 5-20 mg/L) | 2 (2: 5-20 mg/L) | 1 (1: ≥20 mg/L) | 3 (3: 0.2-1 mg/L) | 4 (4: <0.2 mg/L) | 4 (4: <0.2 mg/L) | 4 (4: <0.2 mg/L) | 4 (4: <0.2 mg/L) | 4 (4: <0.2 mg/L)
2 | NC1=NNC(c2cccc3ccccc23)=CS1 | 2 (2: 5-20 mg/L) | 1 (1: ≥20 mg/L) | 1 (1: ≥20 mg/L) | 1 (1: ≥5 mg/L) | 1 (1: ≥5 mg/L) | 1 (1: ≥5 mg/L) | 1 (1: ≥5 mg/L) | 1 (1: ≥5 mg/L) | 1 (1: ≥5 mg/L)
3 | CCCC(C)OCCC1=NN=C(N)SC1 (stereo not drawn) | 3 (3: 1-5 mg/L) | 2 (2: 5-20 mg/L) | 1 (1: ≥20 mg/L) | 2 (2: 1-5 mg/L) | 4 (4: <0.2 mg/L) | 3 (3: 0.2-1 mg/L) | 3 (3: 0.2-1 mg/L) | 2 (2: 1-5 mg/L) | 2 (2: 1-5 mg/L)
4 | COCCOCCC1=NN=C(N)SC1 | 2 (2: 5-20 mg/L) | 2 (2: 5-20 mg/L) | 1 (1: ≥20 mg/L) | 2 (2: 1-5 mg/L) | 3 (3: 0.2-1 mg/L) | 3 (3: 0.2-1 mg/L) | 2 (2: 1-5 mg/L) | 3 (3: 0.2-1 mg/L) | 2 (2: 1-5 mg/L)
5 | NC1=NN=C(CCOc2ccc(Br)cc2)CS1 | 3 (3: 1-5 mg/L) | 1 (1: ≥20 mg/L) | 2 (2: 5-20 mg/L) | 4 (4: <0.2 mg/L) | 4 (4: <0.2 mg/L) | 3 (3: 0.2-1 mg/L) | 4 (4: <0.2 mg/L) | 1 (1: ≥5 mg/L) | 4 (4: <0.2 mg/L)
6 | CCCOc1ccc(CCC2=NN=C(N)SC2)cc1 | 4 (4: <1 mg/L) | 4 (4: <1 mg/L) | 3 (3: 1-5 mg/L) | 3 (3: 0.2-1 mg/L) | 4 (4: <0.2 mg/L) | 4 (4: <0.2 mg/L) | 4 (4: <0.2 mg/L) | 4 (4: <0.2 mg/L) | 4 (4: <0.2 mg/L)
7 | COc1ccc(COCCC2=NN=C(N)SC2)cc1 | 3 (3: 1-5 mg/L) | 2 (2: 5-20 mg/L) | 2 (2: 5-20 mg/L) | 3 (3: 0.2-1 mg/L) | 3 (3: 0.2-1 mg/L) | 3 (3: 0.2-1 mg/L) | 3 (3: 0.2-1 mg/L) | 3 (3: 0.2-1 mg/L) | 3 (3: 0.2-1 mg/L)
8 | NC1=NN=C(CCOCc2ccc(-c3ccccc3)cc2)CS1 | 2 (2: 5-20 mg/L) | 1 (1: ≥20 mg/L) | 2 (2: 5-20 mg/L) | 3 (3: 0.2-1 mg/L) | 3 (3: 0.2-1 mg/L) | 3 (3: 0.2-1 mg/L) | 1 (1: ≥5 mg/L) | 3 (3: 0.2-1 mg/L) | 1 (1: ≥5 mg/L)
9 | Cc1ccc(COCCC2=NN=C(N)SC2)cc1 | 3 (3: 1-5 mg/L) | 3 (3: 1-5 mg/L) | 2 (2: 5-20 mg/L) | 3 (3: 0.2-1 mg/L) | 4 (4: <0.2 mg/L) | 4 (4: <0.2 mg/L) | 4 (4: <0.2 mg/L) | 4 (4: <0.2 mg/L) | 4 (4: <0.2 mg/L)
10 | CCCCCCOCCC1=NN=C(N)SC1 | 4 (4: <1 mg/L) | 4 (4: <1 mg/L) | 3 (3: 1-5 mg/L) | 4 (4: <0.2 mg/L) | 4 (4: <0.2 mg/L) | 4 (4: <0.2 mg/L) | 4 (4: <0.2 mg/L) | 4 (4: <0.2 mg/L) | 4 (4: <0.2 mg/L)
11 | NC1=NN=C(c2ccc3ccccc3c2)CS1 | 1 (1: ≥20 mg/L) | 1 (1: ≥20 mg/L) | 1 (1: ≥20 mg/L) | 1 (1: ≥5 mg/L) | 1 (1: ≥5 mg/L) | 1 (1: ≥5 mg/L) | 1 (1: ≥5 mg/L) | 1 (1: ≥5 mg/L) | 2 (2: 1-5 mg/L)
12 | NC1=NN=C(CCOc2ccccc2)CS1 | 4 (4: <1 mg/L) | 3 (3: 1-5 mg/L) | 2 (2: 5-20 mg/L) | 3 (3: 0.2-1 mg/L) | 3 (3: 0.2-1 mg/L) | 4 (4: <0.2 mg/L) | 4 (4: <0.2 mg/L) | 3 (3: 0.2-1 mg/L) | 4 (4: <0.2 mg/L)
13 | CCCCOc1cccc(C2=NN=C(N)SC2)c1 | 1 (1: ≥20 mg/L) | 1 (1: ≥20 mg/L) | 1 (1: ≥20 mg/L) | 1 (1: ≥5 mg/L) | 1 (1: ≥5 mg/L) | 1 (1: ≥5 mg/L) | 1 (1: ≥5 mg/L) | 1 (1: ≥5 mg/L) | 1 (1: ≥5 mg/L)
14 | NC1=NN=C(c2ccc(Cl)c(Cl)c2)CS1 | 1 (1: ≥20 mg/L) | 1 (1: ≥20 mg/L) | 1 (1: ≥20 mg/L) | 1 (1: ≥5 mg/L) | 2 (2: 1-5 mg/L) | 1 (1: ≥5 mg/L) | 1 (1: ≥5 mg/L) | 1 (1: ≥5 mg/L) | 1 (1: ≥5 mg/L)
15 | CCCCOc1ccc(C2=NN=C(N)SC2)cc1 | 1 (1: ≥20 mg/L) | 1 (1: ≥20 mg/L) | 1 (1: ≥20 mg/L) | 3 (3: 0.2-1 mg/L) | 3 (3: 0.2-1 mg/L) | 3 (3: 0.2-1 mg/L) | 3 (3: 0.2-1 mg/L) | 1 (1: ≥5 mg/L) | 3 (3: 0.2-1 mg/L)
